Results as given in ChEMBL document CHEMBL1201862, “PubChem BioAssay data set” (2004).
Active and inactive are the calls of the source.

Legend:
[1] = target: T1, Short transient receptor potential channel 4 (Mus musculus, UniProt Q9QUQ5); experiment: mouse TRPC4 channel activators, dose response, cell-based, HEK293 TRPC4/mu-opioid, Fluo-4 calcium (AID 434937); type: functional
T1 sequence (Q9QUQ5 whole entry): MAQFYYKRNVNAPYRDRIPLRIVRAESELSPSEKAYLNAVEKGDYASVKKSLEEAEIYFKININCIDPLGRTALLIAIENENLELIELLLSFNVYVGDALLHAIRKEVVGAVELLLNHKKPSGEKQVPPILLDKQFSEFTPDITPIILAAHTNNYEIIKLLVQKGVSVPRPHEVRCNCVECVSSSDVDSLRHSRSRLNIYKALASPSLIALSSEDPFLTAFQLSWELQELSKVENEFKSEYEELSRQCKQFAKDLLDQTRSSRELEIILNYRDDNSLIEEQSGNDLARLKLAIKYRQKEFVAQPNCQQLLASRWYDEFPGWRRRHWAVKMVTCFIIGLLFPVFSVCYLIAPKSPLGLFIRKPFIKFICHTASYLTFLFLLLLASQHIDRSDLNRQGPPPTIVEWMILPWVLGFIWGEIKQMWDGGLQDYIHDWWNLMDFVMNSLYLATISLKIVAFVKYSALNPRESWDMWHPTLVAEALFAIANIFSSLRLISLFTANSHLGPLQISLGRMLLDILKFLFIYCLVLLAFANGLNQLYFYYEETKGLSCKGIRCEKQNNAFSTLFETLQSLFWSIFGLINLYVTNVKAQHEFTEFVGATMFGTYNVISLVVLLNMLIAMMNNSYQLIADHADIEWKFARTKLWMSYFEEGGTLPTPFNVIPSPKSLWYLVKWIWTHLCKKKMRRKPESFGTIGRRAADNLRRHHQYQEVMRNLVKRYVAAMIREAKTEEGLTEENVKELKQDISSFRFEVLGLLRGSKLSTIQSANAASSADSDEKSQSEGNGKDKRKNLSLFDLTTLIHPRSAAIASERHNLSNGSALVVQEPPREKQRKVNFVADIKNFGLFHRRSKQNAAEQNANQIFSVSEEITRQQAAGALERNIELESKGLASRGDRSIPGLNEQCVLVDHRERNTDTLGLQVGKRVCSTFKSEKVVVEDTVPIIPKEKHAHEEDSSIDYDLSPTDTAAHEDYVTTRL

[2] = HEp-2 cell cytotoxicity, dose response, cytotoxicity control for RSV inhibitor project, HTS (AID 2410); type: functional; conditions: human respiratory syncytial virus
BJ [3] = experiment: cytotoxicity toward BJ-TERT fibroblasts, dose response, cell-based, RAS-independent, luminescence (AID 1933); type: functional; conditions: Homo sapiens
BJ [4] = experiment: cells; type: functional, cell-based; conditions: Homo sapiens
[5] = inhibitors of intracellular T. cruzi replication, confirmation, NIH3T3 host cells, beta-gal luminescence (AID 2044); type: functional, cell-based;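 further: intracellular parasites grown in NIH/3T3 mouse fibroblasts as host cells; luminescent beta-galactosidase reporter signal from transgenic T. cruzi replicating inside host cells; inhibitors lower the luminescence signal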
BJ [6] = experiment: cytotoxicity toward BJ-TERT-LT-ST fibroblasts, dose response, cell-based, RAS-independent, luminescence (AID 1935); type: functional; conditions: Homo sapiens;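 further: BJ fibroblasts immortalized with TERT plus LT and ST oncogenes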
[7] = cytotoxicity toward DRD oncogenic fibroblasts, dose response, cell-based, non-viral oncogenic, luminescence (AID 1934); type: functional; conditions: Homo sapiens
[8] = target: T2, Microphthalmia-associated transcription factor (Homo sapiens, UniProt O75030); experiment: TRPM1 promoter luciferase signal decrease, dose response, MITF inhibitor project, cell-based, SK-MEL-5, cherry-picked, set 3 (AID 493073); type: functional
T2 sequence (O75030 whole entry): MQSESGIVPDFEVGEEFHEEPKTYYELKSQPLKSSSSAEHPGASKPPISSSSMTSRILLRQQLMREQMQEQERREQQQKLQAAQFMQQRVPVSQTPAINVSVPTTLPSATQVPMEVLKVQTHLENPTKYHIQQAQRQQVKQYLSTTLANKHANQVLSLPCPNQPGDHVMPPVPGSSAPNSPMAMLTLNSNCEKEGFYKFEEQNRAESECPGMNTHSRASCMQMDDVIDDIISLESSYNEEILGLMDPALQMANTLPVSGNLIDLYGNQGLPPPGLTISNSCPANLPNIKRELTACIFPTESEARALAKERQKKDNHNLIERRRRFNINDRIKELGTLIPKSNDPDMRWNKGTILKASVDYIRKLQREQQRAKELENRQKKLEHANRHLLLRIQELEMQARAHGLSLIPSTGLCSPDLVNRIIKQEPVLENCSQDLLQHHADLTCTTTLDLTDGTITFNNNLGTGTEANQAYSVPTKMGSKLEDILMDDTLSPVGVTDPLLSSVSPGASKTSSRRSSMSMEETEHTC

[9] = target: Beta-2 adrenergic receptor (Homo sapiens, UniProt P07550); experiment: beta2AR agonists driving receptor internalization, dose response, cell-based, FAP fluorogen, flow cytometry, cherry pick 1 (AID 588763); type: functional
[10] = A549 cell cytotoxicity, dose response, cytotoxicity control, plate reader, cherry-pick, antagonist series (AID 743412); type: functional, cell-based
[11] = LGR2 antagonists, dose response, cell-based, HEK293, CRE-luciferase reporter, cherry pick, set 2 (AID 743343); type: functional;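 further: transfected cells were stimulated with diluted bursicon conditioned medium after compound addition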
[12] = MC4R antagonists, dose response, counter-screen for LGR2 antagonist project, cell-based, plate reader, cherry pick (AID 743444); type: functional;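 further: transfected HEK 293 cells stimulated with alpha-MSH peptide; potency of inhibitors of the alpha-MSH evoked signal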
[13] = system: Streptococcus sp. 'group A'; experiment: growth inhibition of control SK(-) GAS strain, dose response, counter-screen for streptokinase expression inhibitor project, luminescence, kanamycin, BacTiterGlo, confirmation (AID 1900); type: functional, organism-based
Streptokinase A = target: T3, Streptokinase A (Streptococcus pyogenes serotype M1, UniProt P10520); experiment: S. pyogenes streptokinase expression inhibitors, potency, dose response, plasminogen activation absorbance, OD405 (AID 1914); type: functional, Streptococcus pyogenes M1 GAS;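 further: secreted streptokinase activity via plasminogen activation per viability signal from cell pellet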
T3 sequence (P10520 whole entry): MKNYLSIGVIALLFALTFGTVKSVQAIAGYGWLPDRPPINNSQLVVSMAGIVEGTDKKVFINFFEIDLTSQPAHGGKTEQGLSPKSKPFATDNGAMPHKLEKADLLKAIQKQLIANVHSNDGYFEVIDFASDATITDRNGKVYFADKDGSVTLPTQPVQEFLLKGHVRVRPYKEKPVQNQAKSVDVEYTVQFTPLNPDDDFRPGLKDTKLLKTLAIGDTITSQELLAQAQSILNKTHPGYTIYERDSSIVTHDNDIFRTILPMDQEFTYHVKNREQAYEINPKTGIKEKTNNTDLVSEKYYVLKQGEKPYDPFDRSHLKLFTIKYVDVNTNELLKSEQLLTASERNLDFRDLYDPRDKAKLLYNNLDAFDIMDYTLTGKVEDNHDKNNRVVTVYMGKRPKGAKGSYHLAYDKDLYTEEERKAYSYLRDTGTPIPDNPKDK

Streptococcus = experiment: Group A Streptococcus viability loss, dose response, counter-screen for streptokinase expression inhibitor project, luminescence, BacTiterGlo (AID 1915); type: functional, organism-based;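 further: potency for reduction of bacterial viability or growth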
[14] = THP-1 cell cytotoxicity, dose response, cytotoxicity control for non-replicating M. tuberculosis project (AID 489025); type: functional
[15] = Vero E6 cell cytotoxicity, dose response, cytotoxicity control for non-replicating M. tuberculosis project, secondary assay (AID 492998); type: functional, VeroE6; conditions: Vero C1008
cells = type: functional
HeLa = experiment: HeLa cell cytotoxicity, dose response, cytotoxicity control for MITF activator project, CellTiter-Glo luminescence, cherry-pick samples (AID 540259); type: functional, cell-based; conditions: Homo sapiens
Cytochrome P450 2C9 = Cytochrome P450 2C9 (Homo sapiens, UniProt P11712)
Cytochrome P450 2C19 = Cytochrome P450 2C19 (Homo sapiens, UniProt P33261); experiment: Cytochrome panel assay with activity outcomes. Panel member name: p450-cyp2c19 Compounds with AC50 equal or less than 10 uM are considered active; type: functional
Cytochrome P450 2C19, sequence (P33261 whole entry): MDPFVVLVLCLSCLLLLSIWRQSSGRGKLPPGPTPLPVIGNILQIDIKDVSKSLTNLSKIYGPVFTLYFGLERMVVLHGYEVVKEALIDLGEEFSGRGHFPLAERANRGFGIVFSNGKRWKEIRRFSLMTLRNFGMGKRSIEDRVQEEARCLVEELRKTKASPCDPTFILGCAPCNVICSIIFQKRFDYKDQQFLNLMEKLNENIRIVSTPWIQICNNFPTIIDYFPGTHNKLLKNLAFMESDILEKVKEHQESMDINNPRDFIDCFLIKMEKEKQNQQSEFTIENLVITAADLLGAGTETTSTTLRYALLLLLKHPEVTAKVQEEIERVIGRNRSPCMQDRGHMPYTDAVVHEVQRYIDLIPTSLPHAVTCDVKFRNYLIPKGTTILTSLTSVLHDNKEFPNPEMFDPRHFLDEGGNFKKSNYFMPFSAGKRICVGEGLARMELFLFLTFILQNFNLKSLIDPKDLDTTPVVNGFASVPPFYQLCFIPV

Cytochrome P450 2C9, sequence (P11712 whole entry): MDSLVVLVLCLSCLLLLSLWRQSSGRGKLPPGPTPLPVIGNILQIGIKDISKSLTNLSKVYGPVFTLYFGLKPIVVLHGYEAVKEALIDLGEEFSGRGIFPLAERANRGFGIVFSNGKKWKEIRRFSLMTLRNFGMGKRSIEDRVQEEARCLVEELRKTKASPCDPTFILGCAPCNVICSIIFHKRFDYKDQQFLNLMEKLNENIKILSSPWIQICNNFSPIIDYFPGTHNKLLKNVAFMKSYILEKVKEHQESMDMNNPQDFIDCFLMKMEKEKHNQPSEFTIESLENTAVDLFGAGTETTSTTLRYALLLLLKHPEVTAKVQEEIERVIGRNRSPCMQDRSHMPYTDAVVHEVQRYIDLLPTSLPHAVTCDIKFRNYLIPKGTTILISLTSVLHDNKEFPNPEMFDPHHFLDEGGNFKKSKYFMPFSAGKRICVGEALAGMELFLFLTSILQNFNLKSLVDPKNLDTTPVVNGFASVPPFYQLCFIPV
Beta-2 adrenergic receptor, sequence (P07550 whole entry): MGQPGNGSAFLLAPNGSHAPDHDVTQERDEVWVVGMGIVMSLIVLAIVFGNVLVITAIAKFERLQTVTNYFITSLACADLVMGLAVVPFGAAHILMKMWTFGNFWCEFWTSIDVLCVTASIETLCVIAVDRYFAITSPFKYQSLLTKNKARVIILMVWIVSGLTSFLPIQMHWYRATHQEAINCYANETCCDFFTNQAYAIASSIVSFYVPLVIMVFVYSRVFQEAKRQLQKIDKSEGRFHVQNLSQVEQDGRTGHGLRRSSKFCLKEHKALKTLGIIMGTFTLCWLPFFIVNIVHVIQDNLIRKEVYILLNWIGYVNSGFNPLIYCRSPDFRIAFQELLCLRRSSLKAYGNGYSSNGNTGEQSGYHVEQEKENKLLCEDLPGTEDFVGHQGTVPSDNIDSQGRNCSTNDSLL

## CCc1cccc(CC)c1N=C(S)NCC(c1cccnc1)N(C)C (stereo unspecified)
[1]
  EC50: 0.168 µM (active)

## O=C(COC(=O)c1ccccc1C(=O)c1ccc(Cl)c([N+](=O)[O-])c1)NC1CC1
[2]
  CC50: 10.2 µM (active)
BJ [3]
  EC50: 5.11 µM (active)
BJ [4]
  EC50: 6.82 µM (inconclusive)
[5]
  EC50: 3.79 µM (active)
BJ [6]
  EC50: 92.6 µM (inconclusive)
[7]
  EC50: 10.1 µM (inconclusive)
[8]
  AC50: 8.92 µM (active)
[9]
  EC50: 13.3 µM (inactive)
[10]
  AC50: 7.05 µM (active)
[11]
  AC50: 11.8 µM (active)
[12]
  AC50: 15.4 µM (active)

## CCC(=O)N1CCc2cc(Br)cc(S(=O)(=O)N(C)c3ccc(OC)cc3)c21
[9]
  EC50: 0.0271 µM (active)

## O=C(CC(=O)c1cc(Cl)ccc1O)c1ccccc1
[13]
  EC50: 1.08 µM (active)
Streptokinase A
  EC50: > 150 µM (not active)
Streptococcus
  EC50: 10.8 µM (active)
[14]
  CC50: 14.6 µM (active)
[15]
  CC50: 8.73 µM (active)
cells
  IC50: 9.73 µM (active)

## CCCc1ccc(OCc2nc(-c3ccc(NC(=O)c4cccs4)cc3)no2)cc1
HeLa
  AC50: 49.1 µM (active)
[9]
  EC50: 0.539 µM (active)

## CCc1ccccc1N=C(S)NCc1ccc2c(c1)OCO2
Cytochrome P450 2C9
  AC50: inconclusive

## CCCC12CN3CC(CCC)(CN(C1)C3C(O)C(O)C(O)CO)C2=O (stereo unspecified)
Cytochrome P450 2C19
  AC50: inconclusive
Cytochrome P450 2C9
  AC50: inconclusive

## COCCn1c(=O)c(C)nc2cnc(N3CCN(C)CC3)nc21
Cytochrome P450 2C9
  AC50: inconclusive

## CN(CCc1nc2cc(Cl)ccc2[nH]1)Cc1nc(CC2CC2)no1
[1]
  EC50: 5.31 µM (active)
